Patent publication US20220296595A1, “CDK INHIBITORS” (QILU REGOR THERAPEUTICS INC., priority 2019, published 2022)
Like-named read-outs stand apart in the source and are kept apart here.

Key:
[1] = biological target: T1, CDK4/CyclinD1 (Homo sapiens, UniProt P11802); experiment: Assay for inhibition of CDK4/CyclinD1 (Caliper microfluidic kinase assay); format: biochemical
T1 construct: purchased Thermofisher PR8064A
How it was run: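 IC50 was obtained by 4-parameter sigmoidal fitting after 1 nM CDK4/CyclinD1, 200 μM ATP and 1 μM FL-34 substrate reacted for 3 h at room temperature (pH 7.5 HEPES, 10 mM MgCl2). After EDTA quench, substrate and product were separated and detected on a Caliper microfluidic chip.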

[2] = biological target: T2, CDK2/CyclinE1 (Homo sapiens, UniProt P24941); experiment: Assay for inhibition of CDK2/CyclinE1 (Caliper microfluidic kinase assay); format: biochemical; conditions: read-out: CDK2 IC50
T2 construct: purchased SignalChem C29-18G
How it was run: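 IC50 came from 4-parameter fits of substrate-to-product conversion, separated on a Caliper chip after an EDTA stop. Reactions ran 3 hours at room temperature with 100 μM ATP, 5 μM fluorescent FL-18 peptide and 5 nM enzyme in 100 mM HEPES pH 7.5, 10 mM MgCl2.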

[3] = test system: T47D breast cancer cells; experiment: Anti-proliferation assay in T47D cell (Cyquant, day 6); format: cell-based, human; conditions: Homo sapiens, T47D, anti-proliferation, T47D cells; read-out: T47D IC50
How it was run: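 A ten-point, 3-fold compound series (10 μM down to 0.51 nM) was applied to overnight-settled cells in 10% FBS RPMI 1640, and DNA content was read by CyQuant fluorescence 6 days later. An untreated plate read before dosing served as baseline for subtraction before IC50 fitting.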

[4] = test system: phosphorylation of Retinoblastoma Protein (pRb Ser807/811 or Ser780) in T47D cells; experiment: Inhibition of phosphorylation of retinoblastoma protein (pRb) in T47D cell (ELISA); format: cell-based, human
Protocol: T47D breast cancer cells from American Type Culture Collection (ATCC, HTB-133) were plated at 40,000 cells/well in 96-well plates, and were incubated in RPMI 1640 medium (Gibco, 31800105) with 10% Fetal Bovine Serum (FBS, Biowest, FB-1058). Cells were then allowed to adhere overnight at 37° C., 5% CO2. The following day, compounds were titrated in a 3-fold dilution scheme, and the highest compound concentration tested was […]. After 24 hours incubation with compounds, cells were lysed in ice-cold lysis buffer containing phosphatase inhibitor cocktail and 1 mM PMSF. Cell lysates (50 μL/well) were then transferred to ELISA plates (pRb Ser807/811 ELISA kit, Cell Signaling, 13152 or pRb Ser780 ELISA kit, Cell Signaling, 13016)). Plates were incubated overnight at 4° C., with constant slow speed shaking. After incubation, plates were washed following manufacturer's recommendations, and then 100 μL reconstituted detection antibody was added to each well and incubated for 1 hour at 37° C. After incubation, plates were washed, and then 100 μL reconstituted HRP-linked secondary antibody was added to each well and incubated for 30 mins at 37° C. After incubation, plates were washed. Then, 100 μL TMB substrate was added to each well and incubated for 10 min at 37° C. or 30 min at 25° C. Finally, 100 μL of STOP solution was added to each well and mixed gently for a few seconds. Plates were read on the Envision plate reader (PerkinElmer, 2104-0010) using the 96-well […] mode. IC50 values were calculated using 4 parameter sigmoidal dose-response model of Xlfit5/GraphPad Prism 5 software.

[5] = Homo sapiens, T47D, read-out: Phospho T47D Ser807 IC50, pRb Ser807 phosphorylation, T47D cells

T1 sequence (P11802 whole entry): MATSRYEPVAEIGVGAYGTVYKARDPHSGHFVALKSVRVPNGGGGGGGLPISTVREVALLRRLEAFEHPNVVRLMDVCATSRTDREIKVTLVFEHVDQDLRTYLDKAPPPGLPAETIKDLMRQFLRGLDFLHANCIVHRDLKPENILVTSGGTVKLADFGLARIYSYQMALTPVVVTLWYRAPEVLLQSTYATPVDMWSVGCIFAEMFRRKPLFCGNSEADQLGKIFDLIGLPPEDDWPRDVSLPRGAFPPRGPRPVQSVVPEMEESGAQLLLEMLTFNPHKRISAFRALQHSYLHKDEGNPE
T1 sequence (P24385 whole entry partner): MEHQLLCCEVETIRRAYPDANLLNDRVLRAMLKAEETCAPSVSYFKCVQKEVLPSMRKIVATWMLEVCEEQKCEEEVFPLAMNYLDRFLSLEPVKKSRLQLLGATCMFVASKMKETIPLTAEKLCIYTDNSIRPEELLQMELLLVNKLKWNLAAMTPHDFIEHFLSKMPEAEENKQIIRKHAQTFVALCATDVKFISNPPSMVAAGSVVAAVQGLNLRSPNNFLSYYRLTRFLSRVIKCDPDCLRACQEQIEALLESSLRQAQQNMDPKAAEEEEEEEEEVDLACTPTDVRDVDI

Molecule	IC50 ([1]; CDK4/CyclinD1, 200 μM ATP)	IC50 ([2]; CDK2/CyclinE1, 100 μM ATP)	IC50 [3]	IC50 [4, 5]	IC50 ([1]; CDK4/CyclinD1)	IC50 ([2]; CDK2/CyclinE1)	IC50 ([4]; pRb Ser807 phosphorylation, T47D cells, read-out: Phospho T47D Ser807 IC50)
CC(C)c1cnn2ccc(-c3ccnc(Nc4ccn(CC5CCN(C(=O)CO)CC5)n4)n3)cc12 [Synthetic Example 55]	10 to 100 nM	> 1000 nM	500 to 1000 nM	100 to 500 nM			
CC(C)c1cnn2ccc(-c3ccnc(Nc4ccn(CC5CCNCC5)n4)n3)cc12 [compound 32]	10 to 100 nM	> 1000 nM	100 to 500 nM	100 to 500 nM			
CC(C)c1cnn2ccc(-c3ccnc(Nc4cnn(CC5CCNCC5)c4)n3)cc12 [compound 36]	10 to 100 nM	10 to 100 nM	100 to 500 nM	100 to 500 nM			
CC(C)c1cnn2c(C#N)cc(-c3ccnc(Nc4ccc(N5CCNCC5=O)cn4)n3)cc12 [compound 38]	10 to 100 nM	> 1000 nM	> 1000 nM	500 to 1000 nM			
CC(C)c1cnn2ccc(-c3ccnc(Nc4ccn(CC5CCN(C(=O)CC#N)CC5)n4)n3)cc12 [compound 56]	10 to 100 nM	> 1000 nM		100 to 500 nM			
COc1nc(-c2nc(Nc3ccc(N4CC5CCC(C4)O5)cn3)ncc2F)cc2c1nc(C)n2C(C)C [compound 65]				100 to 500 nM	10 to 100 nM	> 1000 nM	
COc1nc(-c2ccnc(Nc3ccc(N4CCOCC4)cn3)n2)cc2c1ncn2C(C)C [compound 66]			100 to 500 nM	100 to 500 nM	< 10 nM	> 1000 nM	
COc1nc(-c2ccnc(Nc3ccc(CN4CCC(C#N)C4)cn3)n2)cc2c1ncn2C(C)C (stereo not drawn) [compound 67]				100 to 500 nM	10 to 100 nM	> 1000 nM	
COc1nc(-c2ccnc(Nc3ccc(CN4CCC(F)(F)C4)cn3)n2)cc2c1ncn2C(C)C [compound 69]			100 to 500 nM	100 to 500 nM	10 to 100 nM	> 1000 nM	
COc1nc(-c2ccnc(Nc3ccc(CN4CCC(F)C4)cn3)n2)cc2c1ncn2C(C)C (stereo not drawn) [compound 76]				100 to 500 nM	10 to 100 nM	> 1000 nM	
COc1nc(-c2nc(Nc3ccc(N4CCC5(CC4)CC(=O)NC5=O)cn3)ncc2F)cc2c1nc(C)n2C(C)C [compound 79]				100 to 500 nM	10 to 100 nM	> 1000 nM	
COc1nc(-c2ccnc(Nc3ccc(CN4CCOCC4)cn3)n2)cc2c1ncn2C(C)C [compound 81]			100 to 500 nM	100 to 500 nM	10 to 100 nM	> 1000 nM	
COc1nc(-c2nc(Nc3ccc(N4CCCC4=O)cn3)ncc2F)cc2c1nc(C)n2C(C)C [compound 82]			100 to 500 nM	100 to 500 nM	10 to 100 nM	100 to 1000 nM	
COc1nc(-c2ccnc(Nc3ccc(N4CCOC(C)(C)C4)cn3)n2)cc2c1ncn2C(C)C [compound 88]			100 to 500 nM	100 to 500 nM	10 to 100 nM	> 1000 nM	
COc1nc(-c2ccnc(Nc3ccc(N4CCOC(C)C4)cn3)n2)cc2c1ncn2C(C)C (stereo not drawn) [compound 96]			100 to 500 nM	100 to 500 nM	10 to 100 nM	> 1000 nM	
COc1nc(-c2ccnc(Nc3ccc(N4CC5CC4CO5)cn3)n2)cc2c1ncn2C(C)C (stereo not drawn) [compound 104]			100 to 500 nM	100 to 500 nM	10 to 100 nM	> 1000 nM	
COc1nc(-c2nc(Nc3ccc(N4CCN(CCF)CC4)cn3)ncc2F)cc2c1ncn2C(C)C [compound 125]	10 to 100 nM	> 1000 nM		100 to 500 nM			
COc1nc(-c2nc(Nc3ccc(N4CCN(C5COC5)CC4)cn3)ncc2F)cc2c1ncn2C(C)C [compound 133]	10 to 100 nM	> 1000 nM		100 to 500 nM			
CC(C)n1cnc2c(F)nc(-c3ccnc(Nc4ccc(N5CCN(C)CC5)cn4)n3)cc21 [compound 290]	< 10 nM	100 to 1000 nM		< 100 nM			
N-[5-[4-(dimethylamino)-1-piperidyl]-2-pyridyl]-4-(3-isopropylpyrazolo[1,5-a]pyridin-5-yl)pyrimidin-2-amine [Synthetic Example 161]							< 100 nM
